Test results as given in patent US10086028B2, “Method for treating vascular inflammation, improving skin beauty and improving male sexual function using ginseng berry” (AMOREPACIFIC CORPORATION, priority 2007, dated 2018).

Legend:
[1] = test system: Macrophages (Raw 264.7 cells); experiment: Inhibition of LPS-induced NO generation in macrophages (Griess reaction); assay type: cell-based; details: LPS 1 μg/mL
Protocol: Effect of inhibiting LPS-induced NO generation in macrophages was tested in order to confirm the effect of inhibiting vascular inflammation of the ginseng berry extract.
Macrophages (Raw 264.7 cells) were cultured in a medium containing 10% serum under the condition of 5% CO2. After culturing on a 96-well plate incubator to a concentration of 2×10^5 cells/well and stimulating with LPS (1 μg/mL), the cells were treated with the ginseng berry extract of Example 1 (50 μg/mL and 100 μg/mL), the ginseng berry saponin concentrate of Example 2 (100 μg/mL), the ginseng root extract of Comparative Example 1 (100 μg/mL) or ginsenosides Rg1, Rg2, Rh1 or Re (10 μg/mL and 20 μg/mL), respectively. After keeping the treated cells at 37° C. for 1 hour, the degree of NO generation was measured to compare the effect of inhibiting LPS-induced NO generation of the test substances. NO generation (μM) was measured using the Griess reaction [Minghetti, L. et al., 1991, Glia 19. 152-160]. Measurement was made twice and the mean value was calculated.

[2] = test system: human HaCaT keratinocytes; experiment: Antioxidative effect: removal of UV-generated ROS in HaCaT keratinocytes; assay type: cell-based; details: ROS generated by UV in HaCaT; sample 10 μg/mL (Trolox given as (10))
Source text: Antioxidative effect of the ginseng berry extract was investigated by comparing the ability of removing reactive oxygen species (ROS) generated in human HaCaT keratinocytes by ultraviolet (UV) radiation.

[3] = test system: melanocytes (MeI-Ab cells); experiment: Inhibition of melanin generation in mouse melanocytes; assay type: cell-based, C57BL/6 mouse; details: added for 3 consecutive days; sample 10 μg/mL
Protocol: Inhibition of melanin generation in mouse melanocytes was evaluated in order to confirm the effect of the ginseng berry extract of Example 1 of inhibiting melanin generation.
First, melanocytes (MeI-Ab cells) derived from C57BL/6 mouse [Dooley, T. P. et al, Skin Pharmacol., 7, pp. 188-200] were cultured in Dulbecco's modified Eagle's medium (DMEM) containing 10% FBS, 100 nM 2-O-tetradecanoylphorbol-13-acetate and 1 nM cholera toxin under the condition of 37° C., 5% CO2. The cultured MeI-Ab cells were separated using 0.25% trypsin-EDTA, and cultured on a 24-well plate to a concentration of 10^5 cells/well. Starting from day 2, the ginseng berry extract of Example 1 (1 μg/mL, 10 μg/mL and 100 μg/mL), the ginseng berry saponin concentrate of Example 2 (10 μg/mL), the ginseng root extract of Comparative Example 1 (10 μg/mL) or ginsenosides Rg1, Rg2, Rh1 or Re (10 μg/mL) was added for 3 consecutive days. Hydroquinone (10 μg/mL) was used as a positive control substance. Then, after removing the medium and washing with PBS, the cells were dissolved with 1 N sodium hydroxide. Absorbance was measured at 400 nm, and melanin generation inhibition ratio was calculated by Equation 3.

[4] = test system: Human epidermal cells; experiment: Hyaluronic acid production in human epidermal cells; assay type: cell-based; details: 48 hours, relative to control; sample 10 μg/mL
Protocol: Human epidermal cells were cultured and the medium was replaced by one containing the ginseng berry extract of Example 1 (1 μg/mL, 10 μg/mL and 100 μg/mL), the ginseng berry saponin concentrate of Example 2 (10 μg/mL), the ginseng root extract of Comparative Example 1 (10 μg/mL) or ginsenosides Rg1, Rg2, Rh1 or Re (10 μg/mL) or a general medium (control). The cells were then cultured for 48 hours under the same conditions. Then, the quantity of hyaluronic acid in the groups was compared using a hyaluronic acid measurement kit. The result is given as relative value with respect to the control group in Table 16 and FIG. 20.

## CC(C)=CCC[C@](C)(O)[C@H]1CC[C@]2(C)[C@@H]1[C@H](O)C[C@@H]1[C@@]3(C)CC[C@H](O)C(C)(C)[C@@H]3[C@@H](O[C@@H]3O[C@H](CO)[C@@H](O)[C@H](O)[C@H]3O[C@@H]3O[C@@H](C)[C@H](O)[C@@H](O)[C@H]3O)C[C@]12C [Rg2]
[1]; sample 10 μg/mL
  NO generation relative to negative control (%): 100.3%
  NO generation, Mean ± standard deviation: 16.68 ± 0.45 µM
  NO generation, Result 1: 17.00 µM
  NO generation, Result 2: 16.36 µM
[1]; sample 20 μg/mL
  NO generation relative to negative control (%): 97.4%
  NO generation, Mean ± standard deviation: 16.19 ± 0.01 µM
  NO generation, Result 1: 16.18 µM
  NO generation, Result 2: 16.19 µM
[2]
  Antioxidative effect (%): 1%
[3]
  Melanin generation inhibition ratio (%): 0%
[4]
  Hyaluronic acid production (%): 105%

## CC(C)=CCC[C@](C)(O[C@@H]1O[C@H](CO)[C@@H](O)[C@H](O)[C@H]1O)[C@H]1CC[C@]2(C)[C@@H]1[C@H](O)C[C@@H]1[C@@]3(C)CC[C@H](O)C(C)(C)[C@@H]3[C@@H](O[C@@H]3O[C@H](CO)[C@@H](O)[C@H](O)[C@H]3O)C[C@]12C [Rg1]
[1]; sample 10 μg/mL
  NO generation relative to negative control (%): 101.2%
  NO generation, Mean ± standard deviation: 16.83 ± 0.63 µM
  NO generation, Result 1: 16.38 µM
  NO generation, Result 2: 17.27 µM
[1]; sample 20 μg/mL
  NO generation relative to negative control (%): 99.3%
  NO generation, Mean ± standard deviation: 16.50 ± 1.06 µM
  NO generation, Result 1: 15.75 µM
  NO generation, Result 2: 17.25 µM
[2]
  Antioxidative effect (%): 2%
[3]
  Melanin generation inhibition ratio (%): 1%
[4]
  Hyaluronic acid production (%): 100%

## CC(C)=CCC[C@](C)(O)[C@H]1CC[C@]2(C)[C@@H]1[C@H](O)C[C@@H]1[C@@]3(C)CC[C@H](O)C(C)(C)[C@@H]3[C@@H](O[C@@H]3O[C@H](CO)[C@@H](O)[C@H](O)[C@H]3O)C[C@]12C [Rh1]
[1]; sample 10 μg/mL
  NO generation relative to negative control (%): 89.4%
  NO generation, Mean ± standard deviation: 14.86 ± 0.07 µM
  NO generation, Result 1: 14.92 µM
  NO generation, Result 2: 14.81 µM
[1]; sample 20 μg/mL
  NO generation relative to negative control (%): 75.1%
  NO generation, Mean ± standard deviation: 12.48 ± 0.26 µM
  NO generation, Result 1: 12.29 µM
  NO generation, Result 2: 12.66 µM
[2]
  Antioxidative effect (%): 3%
[3]
  Melanin generation inhibition ratio (%): 2%
[4]
  Hyaluronic acid production (%): 100%
